Experimental data: US6479435B1, “Diaryl ethers and processes for their preparation and herbicidal and desiccant compositions containing them” (ISK Americas Incorporated, priority 1997, dated 2002)

Legend:
Type in all cases: in vivo
[1] = system: green foxtail (Setaria viridis, SETVI); test: Pre-emerge greenhouse herbicide test, phytotoxicity rating; details: 14 days after application, rating scale 0-100
Summary of the method: (§1)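 Seeds sown in sandy loam one day before track-sprayer application of acetone solutions at 125–1000 g ai/ha (187 l/ha), then surface-watered to incorporate and bottom-watered. Injury scored visually at 14 days on a 0–100 scale (0 no damage, 100 complete death).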

[2] = system: lambsquarters (Chenopodium album, CHEAL); test: as above; details: 14 days after application, rating scale 0-100
Summary of the method: as §1

[3] = system: velvetleaf (Abutilon theophrasti, ABUTH); test: as above; details: 14 days after application, rating scale 0-100
Summary of the method: as §1

[4] = system: Johnsongrass (Sorghum halepense, SORHA); test: as above; details: 14 days after application, rating scale 0-100
Summary of the method: as §1

[5] = system: redroot pigweed (Amaranthus retroflexus, AMARE); test: as above; details: 14 days after application, rating scale 0-100
Summary of the method: as §1

[6] = system: sicklepod (Cassia obtusifolia, CASOB); test: as above; details: 14 days after application, rating scale 0-100
Summary of the method: as §1

[7] = system: large crabgrass (Digitaria sanguinalis, DIGSA); test: as above; details: 14 days after application, rating scale 0-100
Summary of the method: as §1

[8] = system: common ragweed (Ambrosia artemisiifolia L., AMBEL); test: as above; details: 14 days after application, rating scale 0-100
Summary of the method: as §1

[9] = system: ivyleaf morningglory (Ipomoea hederacea, IPOHE); test: as above; details: 14 days after application, rating scale 0-100
Summary of the method: as §1

[10] = system: barnyardgrass (Echinochloa crusgalli, ECHCG); test: as above; details: 14 days after application, rating scale 0-100
Summary of the method: as §1

[11] = system: common ragweed (Ambrosia artemisiifolia L., AMBEL); test: Post-emerge greenhouse herbicide test, phytotoxicity rating; details: 14 days after application
Summary of the method: (§2)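 Plants at the 2-3 leaf stage, sown 8-21 days earlier, were track-sprayed post-emergence with compound in acetone plus 0.25% v/v non-ionic surfactant at 63-1000 g ai/ha (187 l/ha). Damage was rated at 14 days on a 0-100 scale (0 none, 100 all plants dead), for both crop injury and weed control.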

[12] = system: upland rice (Oryza sp., var.Tebonnet, RICE); test: Post-emerge greenhouse test, crop damage rating; details: 14 days after application
Summary of the method: as §2

[13] = system: field corn (Zea mays L., var. Dekalb 535, CORN); test: Post-emerge greenhouse test, crop damage rating; details: 14 days after application
Summary of the method: as §2

[14] = system: upland rice (Oryza sp., var.Tebonnet, RICE); test: Pre-emerge greenhouse test, crop damage rating; details: 14 days after application, rating scale 0-100
Summary of the method: as §1

[15] = system: field corn (Zea mays L., var. Dekalb 535, CORN); test: Pre-emerge greenhouse test, crop damage rating; details: 14 days after application, rating scale 0-100
Summary of the method: as §1

[16] = system: soybean (Glycine max L., var. Pella 86, SOY); test: Post-emerge greenhouse test, crop damage rating; details: 14 days after application
Summary of the method: as §2

[17] = system: soybean (Glycine max L., var. Pella 86, SOY); test: Pre-emerge greenhouse test, crop damage rating; details: 14 days after application, rating scale 0-100
Summary of the method: as §1

[18] = system: green foxtail (Setaria viridis, SETVI); test: Post-emerge greenhouse herbicide test, phytotoxicity rating; details: 14 days after application
Summary of the method: as §2

[19] = system: lambsquarters (Chenopodium album, CHEAL); test: as above; details: 14 days after application
Summary of the method: as §2

[20] = system: velvetleaf (Abutilon theophrasti, ABUTH); test: as above; details: 14 days after application
Summary of the method: as §2

[21] = system: Johnsongrass (Sorghum halepense, SORHA); test: as above; details: 14 days after application
Summary of the method: as §2

[22] = system: redroot pigweed (Amaranthus retroflexus, AMARE); test: as above; details: 14 days after application
Summary of the method: as §2

[23] = system: large crabgrass (Digitaria sanguinalis, DIGSA); test: as above; details: 14 days after application
Summary of the method: as §2

[24] = system: ivyleaf morningglory (Ipomoea hederacea, IPOHE); test: as above; details: 14 days after application
Summary of the method: as §2

[25] = system: barnyardgrass (Echinochloa crusgalli, ECHCG); test: as above; details: 14 days after application
Summary of the method: as §2

Cn1nc(-c2cc(Oc3cccc(F)n3)c(Cl)cc2F)c(Cl)c1C(F)(F)F [Compound 1-5]
50: phytotoxicity rating SORHA ([4]; 125 g ai/ha) | phytotoxicity rating CASOB ([6]; 125 g ai/ha) | phytotoxicity rating AMBEL ([8]; 125 g ai/ha) | phytotoxicity rating ECHCG ([10]; 125 g ai/ha) | DIGSA phytotoxicity rating (0-100) ([23]; 63 g al/ha)
0: crop damage rating SOY ([17]; 125 g ai/ha) | crop damage rating SOY ([17]; 500 g ai/ha) | SETVI phytotoxicity rating (0-100) ([18]; 63 g al/ha)
80: RICE crop damage rating (0-100) ([12]; 500 g al/ha)
30: phytotoxicity rating IPOHE ([9]; 125 g ai/ha) | AMBEL phytotoxicity rating (0-100) ([11]; 63 g al/ha) | CORN crop damage rating (0-100) ([13]; 500 g al/ha) | crop damage rating RICE ([14]; 125 g ai/ha) | crop damage rating CORN ([15]; 500 g ai/ha) | ABUTH phytotoxicity rating (0-100) ([20]; 63 g al/ha) | SORHA phytotoxicity rating (0-100) ([21]; 63 g al/ha) | ECHCG phytotoxicity rating (0-100) ([25]; 63 g al/ha)
40: RICE crop damage rating (0-100) ([12]; 63 g al/ha) | SOY crop damage rating (0-100) ([16]; 63 g al/ha)
90: phytotoxicity rating ABUTH ([3]; 500 g ai/ha) | phytotoxicity rating DIGSA ([7]; 500 g ai/ha) | phytotoxicity rating AMBEL ([8]; 500 g ai/ha) | phytotoxicity rating ECHCG ([10]; 500 g ai/ha) | AMBEL phytotoxicity rating (0-100) ([11]; 500 g al/ha) | SOY crop damage rating (0-100) ([16]; 500 g al/ha)
20: crop damage rating RICE ([14]; 500 g ai/ha) | crop damage rating CORN ([15]; 125 g ai/ha)
10: CORN crop damage rating (0-100) ([13]; 63 g al/ha)
99: DIGSA phytotoxicity rating (0-100) ([23]; 500 g al/ha)
100: phytotoxicity rating SETVI ([1]; 125 g ai/ha) | phytotoxicity rating SETVI ([1]; 500 g ai/ha) | phytotoxicity rating CHEAL ([2]; 125 g ai/ha) | phytotoxicity rating CHEAL ([2]; 500 g ai/ha) | phytotoxicity rating AMARE ([5]; 125 g ai/ha) | phytotoxicity rating AMARE ([5]; 500 g ai/ha) | phytotoxicity rating CASOB ([6]; 500 g ai/ha) | phytotoxicity rating DIGSA ([7]; 125 g ai/ha) | SETVI phytotoxicity rating (0-100) ([18]; 500 g al/ha) | CHEAL phytotoxicity rating (0-100) ([19]; 500 g al/ha) | ABUTH phytotoxicity rating (0-100) ([20]; 500 g al/ha) | AMARE phytotoxicity rating (0-100) ([22]; 63 g al/ha) | AMARE phytotoxicity rating (0-100) ([22]; 500 g al/ha) | IPOHE phytotoxicity rating (0-100) ([24]; 500 g al/ha) | ECHCG phytotoxicity rating (0-100) ([25]; 500 g al/ha)
70: phytotoxicity rating ABUTH ([3]; 125 g ai/ha) | phytotoxicity rating IPOHE ([9]; 500 g ai/ha)
95: phytotoxicity rating SORHA ([4]; 500 g ai/ha) | CHEAL phytotoxicity rating (0-100) ([19]; 63 g al/ha) | SORHA phytotoxicity rating (0-100) ([21]; 500 g al/ha) | IPOHE phytotoxicity rating (0-100) ([24]; 63 g al/ha)
